Tests used:
mice (CD-1 strain) [1] = assay: Forced Swimming Test; assay type: in vivo; settings: duration of immobility, one hour prior to test, 15-minute test period
Method: The therapeutic use of the compounds claimed in the present invention as antidepressants has been proven by the "Forced Swimming Test", a well known pharmacological screening methods for depression and the results are shown in the following Table II.
The procedure described by Porsolt et al., (1997) was used. Test compound was administered p.o. and i.p. to mice (CD-1 strain), one hour prior to the animals being immersed in a 1500mL glass beaker (16.5cm deep, 13.0cm diameter) filled with water (20 ∼ 23°C) to about 5cm from the top. Mice were kept in the water for a period of 15 minutes and the duration of immobility observed within the 15-minute test period was recorded. A mouse was judged to be immobile if it floated motionlessly in the water making only those movements necessary to keep its head above the water.

mice (CD-1 strain) [2] = assay: Maximal ElectroShock (MES) test; assay type: in vivo; settings: for ED50: Mus musculus

Row | Structure (SMILES) | Inhibition (reduction,%) (mice (CD-1 strain) [1]; i.p. (30mg/kg)) [%] | Inhibition (reduction,%) (mice (CD-1 strain) [1]; p.o. (30mg/kg)) [%] | other results
1 | CNC(=S)OCCC(N)c1ccccc1 (stereo not drawn) | 44.2 | 29.2 | 
2 | CNC(=S)OCC(CN)c1ccccc1 (stereo not drawn) | 30.5 | 25.6 | 
3 | NC(=S)OC[C@@H](N)Cc1ccccc1 | 51.2 |  | 
4 | NC(=S)OCC(N)Cc1ccc(Cl)cc1 (racemic) | 30.6 | 38.1 | 
5 | CNC(=S)OCC(N)Cc1ccccc1F (racemic) |  |  | ED50 (mice (CD-1 strain) [2]; ip, 1h): 24.7 mg/kg
6 | CN(C)C(=S)OC[C@H](N)Cc1ccc(Cl)c(Cl)c1 [[drawing] the 2nd table, row 12] | 54.9 | 50.8 | 
7 | CNC(=S)OC[C@@H](N)Cc1ccccc1 |  |  | ED50 (mice (CD-1 strain) [2]; ip, 0.5h): 41.8 mg/kg; ED50 (mice (CD-1 strain) [2]; po, 0.5h): 152 mg/kg
8 | NC(=S)OC[C@H](N)Cc1ccccc1 [[drawing] the 3rd table, row 2] |  |  | ED50 (mice (CD-1 strain) [2]; ip, 0.5h): 29 mg/kg; ED50 (mice (CD-1 strain) [2]; po, 0.5h): 189 mg/kg
9 | CN(C)C(=S)OC[C@H](N)Cc1ccc(Cl)c(Cl)c1 [[drawing] the 3rd table, row 7] |  |  | MES (ip, 30mg/kg) (mice (CD-1 strain) [2]; ip, 30mg/kg, 4.0h, mice protected / mice tested): 1/3 (4.0h)
10 | CNC(=S)OC[C@H](N)Cc1ccccc1 |  |  | ED50 (mice (CD-1 strain) [2]; ip, 1h): 20.9 mg/kg; MES (po, 30mg/kg) (mice (CD-1 strain) [2]; po, 30mg/kg, 0.5h, mice protected / mice tested): 3/3 (0.5h)
11 | NC(=S)OC[C@H](N)Cc1ccccc1 [[drawing] the 2nd table, row 2] | 41.6 |  | 

Source: patent publication EP1149076B1, “O-THIOCARBAMOYL-AMINOALKANOL COMPOUNDS, THEIR PHARMACEUTICALLY ACCEPTABLE SALTS AND PROCESS FOR PREPARING THE SAME” (SK Corporation, priority 1999, dated 2000)
